According to patent US12378243B2, “Quinoline compounds as inhibitors of KRAS” (Incyte Corporation, priority 2021, dated 2025):

What was measured:
KRAS G12D = KRAS G12D (Homo sapiens, UniProt P01116, G12D); experiment: GDP-GTP exchange assay, KRAS G12D; format: biochemical; settings: bodipy-loaded KRAS G12D 2.5 nM, GppNHp 500 uM, SOS1 150 nM; 4 hours pre-incubation, 2 hours incubation; read-out: G12D_exchange
How it was run: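 Nucleotide exchange started with 1 mM GppNHp and 300 nM SOS1, then 2 h at ambient temperature. IC50 from four-parameter logistic fit with variable Hill slope.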

KRAS G12V mutant = KRAS G12V mutant (Homo sapiens, UniProt P01116, G12V); experiment: GDP-GTP exchange assay, KRAS G12V; format: biochemical; settings: bodipy loaded KRAS G12V 2.5 nM; 3 hours incubation after adding GppNHp-SOS1 mixture; read-out: G12V_exchange
Sequence of KRAS G12V mutant (P01116 1-188 isoform P01116-2 G12V): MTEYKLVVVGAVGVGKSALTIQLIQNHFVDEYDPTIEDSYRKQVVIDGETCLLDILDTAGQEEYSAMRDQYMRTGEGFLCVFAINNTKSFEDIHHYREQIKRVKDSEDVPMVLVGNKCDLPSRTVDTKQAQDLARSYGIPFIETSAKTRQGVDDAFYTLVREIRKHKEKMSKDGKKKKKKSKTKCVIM

Caco-2 cells = experiment: Caco2 assay (permeability, A-B); format: in vitro ADME; settings: Papp absorptive direction (A-B), test compound 50 μM, 120 minutes at 37° C.
How it was run: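 Caco-2 monolayers grown 22-25 days on Transwells, used only at TEER ≥300 Ω·cm^2. Compound at 50 μM in HBSS added apically, receiver HBSS with 4% BSA; 120 min at 37 °C. LCMS quantification; Papp from receiver flux slope, membrane area and initial donor amount.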

Sequence of KRAS G12D (P01116 1-188 isoform P01116-2 G12D): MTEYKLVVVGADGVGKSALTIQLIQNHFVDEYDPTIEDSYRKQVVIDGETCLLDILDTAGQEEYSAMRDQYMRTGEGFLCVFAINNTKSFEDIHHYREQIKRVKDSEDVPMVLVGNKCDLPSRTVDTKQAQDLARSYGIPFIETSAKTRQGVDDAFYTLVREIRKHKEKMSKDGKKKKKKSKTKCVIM

SMILES | IC50 (KRAS G12D) | IC50 (KRAS G12V mutant) | Caco-2 (Caco-2 cells; Table 3) | Caco-2 (Caco-2 cells; Table 4)
C[C@H](Oc1nc2c(F)c(-c3cccc4ccc(F)c(F)c34)c(CCC#N)cc2c2c1cc(CCC(=O)N1CCC1)n2[C@H]1[C@H]2CN[C@@H]1C2)[C@@H]1CCCN1C (single isomer, unassigned) [Example 20] | < 100 nM | < 100 nM | + (a Caco-2 value of 50.5) | 
C[C@H](c1cc2c(-c3ccc(C(C)(C)O)nc3)nc3c(F)c(-c4cccc5ccc(F)cc45)c(CCC#N)cc3c2n1[C@H]1[C@H]2CN[C@@H]1C2)n1ccncc1=O [Example 37, 3-(1-((1R,4R,5S)-2-Azabicyclo[2.1.1]hexan-5-yl)-6-fluoro-7-(7-fluoronaphthalen-1-yl)-4-(6-(2-hydroxypropan-2-yl)pyridin-3-yl)-2-((R)-1-(2-oxopyrazin-1(2H)-yl)ethyl)-1H-pyrrolo[3,2-c]quinolin-8-yl)propanenitrile] | < 100 nM | < 100 nM |  | +++ (a Caco-2 value of >1)
C[C@H](c1cc2c(-c3ccc(C(C)(C)O)nc3)nc3c(F)c(-c4cccc5ccc(F)cc45)c(CCC#N)cc3c2n1[C@H]1[C@H]2CN[C@@H]1C2)N1CCOCC1=O [Example 46, 3-(1-((1R,4R,5S)-2-Azabicyclo[2.1.1]hexan-5-yl)-6-fluoro-7-(7-fluoronaphthalen-1-yl)-4-(6-(2-hydroxypropan-2-yl)pyridin-3-yl)-2-((R)-1-(3-oxomorpholino)ethyl)-1H-pyrrolo[3,2-c]quinolin-8-yl)propanenitrile] | < 100 nM | < 100 nM |  | +++ (a Caco-2 value of >1)
Cc1cc2c(-n3cncn3)nc3c(F)c(-c4cc(O)cc5ccc(F)cc45)c(CCC#N)cc3c2n1[C@H]1[C@H]2CN[C@@H]1C2 [Example 26, 3-(1-((1R,4R,5S)-2-Azabicyclo[2.1.1]hexan-5-yl)-6-fluoro-7-(7-fluoro-3-hydroxynaphthalen-1-yl)-2-methyl-4-(1H-1,2,4-triazol-1-yl)-1H-pyrrolo[3,2-c]quinolin-8-yl)propanenitrile] | < 100 nM | < 100 nM | + (a Caco-2 value of 50.5) | 
COC(=O)N1C[C@@H](F)C[C@@H]1c1cc2c(-c3ccc(C(C)(C)O)nc3)nc3c(F)c(-c4cccc(Cl)c4Cl)c(CCC#N)cc3c2n1[C@H]1[C@H]2CN[C@@H]1C2 [Example 51, Methyl (2R,4S)-2-(1-((1R,4R,5S)-2-azabicyclo[2.1.1]hexan-5-yl)-8-(2-cyanoethyl)-7-(2,3-dichlorophenyl)-6-fluoro-4-(6-(2-hydroxypropan-2-yl)pyridin-3-yl)-1H-pyrrolo[3,2-c]quinolin-2-yl)-4-fluoropyrrolidine-1-carboxylate] | < 100 nM | < 100 nM |  | +++ (a Caco-2 value of >1)
C[C@@H](CN(C)C)Oc1nc2c(F)c(-c3cccc4ccc(F)cc34)c(CCC#N)cc2c2c1cc(CN1CCCC1=O)n2[C@H]1[C@H]2CN[C@@H]1C2 (single isomer, unassigned) [Example 10] | < 100 nM | < 100 nM | + (a Caco-2 value of 50.5) | 
Cc1cc2c(nc(O[C@@H](C)[C@@H]3CCCN3C)c3cc(CN4CCOC4=O)n([C@H]4[C@H]5CN[C@@H]4C5)c32)c(F)c1-c1cc(O)cc2ccccc12 [Example 5, 3-((1-((1R,4R,5S)-2-Azabicyclo[2.1.1]hexan-5-yl)-6-fluoro-7-(3-hydroxynaphthalen-1-yl)-8-methyl-4-((S)-1-((S)-1-methylpyrrolidin-2-yl)ethoxy)-1H-pyrrolo[3,2-c]quinolin-2-yl)methyl)oxazolidin-2-one] | < 100 nM | < 100 nM | + (a Caco-2 value of 50.5) | 
C[C@H](Oc1nc2c(F)c(-c3cc(O)cc4ccccc34)c(CCC#N)cc2c2c1cc(-c1cccnc1)n2C1C2CNC1C2)[C@@H]1CCCN1C (stereo partly drawn) [Example 19, 3-(1-((endo)-2-Azabicyclo[2.1.1]hexan-5-yl)-6-fluoro-7-(3-hydroxynaphthalen-1-yl)-4-((S)-1-((S)-1-methylpyrrolidin-2-yl)ethoxy)-2-(pyridin-3-yl)-1H-pyrrolo[3,2-c]quinolin-8-yl)propanenitrile] | < 100 nM | < 100 nM | + (a Caco-2 value of 50.5) | 
CNC(=O)c1ccc(-c2nc3c(F)c(-c4cccc(Cl)c4C)c(CCC#N)cc3c3c2cc([C@@H](C)n2ccncc2=O)n3[C@H]2[C@H]3CN[C@@H]2C3)cn1 (single isomer, unassigned) [Example 36] | < 100 nM | < 100 nM |  | +++ (a Caco-2 value of >1)
Cc1nc2c(F)c(-c3cccc4ccc(F)cc34)c(CCC#N)cc2c2c1cc(CN1CCN(C)CC1=O)n2[C@H]1[C@H]2CN[C@@H]1C2 [Example 15, 3-(1-((1R,4R,5S)-2-Azabicyclo[2.1.1]hexan-5-yl)-6-fluoro-7-(7-fluoronaphthalen-1-yl)-4-methyl-2-((4-methyl-2-oxopiperazin-1-yl)methyl)-1H-pyrrolo[3,2-c]quinolin-8-yl)propanenitrile] | < 100 nM | 100 to 1000 nM | ++ (a Caco-2 value of >0.5 but ≤1) | 
CN(C)C1(C)CN(c2nc3c(F)c(-c4cccc5ccc(F)cc45)c(CCC#N)cc3c3c2cc(CN2CCOCC2=O)n3[C@H]2[C@H]3CN[C@@H]2C3)C1 [Example 17, 3-(1-((1R,4R,5S)-2-Azabicyclo[2.1.1]hexan-5-yl)-4-(3-(dimethylamino)-3-methylazetidin-1-yl)-6-fluoro-7-(7-fluoronaphthalen-1-yl)-2-((3-oxomorpholino)methyl)-1H-pyrrolo[3,2-c]quinolin-8-yl)propanenitrile] | < 100 nM | < 100 nM | + (a Caco-2 value of 50.5) | 

Now from value to compound:

IC50 (KRAS G12D) | IC50 (KRAS G12V mutant) | Caco-2 (Caco-2 cells; Table 3) | Caco-2 (Caco-2 cells; Table 4) | SMILES
< 100 nM | < 100 nM |  | +++ (a Caco-2 value of >1) | Cc1nc2c(F)c(-c3cccc(Cl)c3Cl)c(CCC#N)cc2c2c1cc([C@@H](C)NC(=O)C(F)F)n2[C@H]1[C@H]2CN[C@@H]1C2 [Example 56, N-((1R)-1-(1-((1R,4R,5S)-2-Azabicyclo[2.1.1]hexan-5-yl)-8-(2-cyanoethyl)-7-(2,3-dichlorophenyl)-6-fluoro-4-methyl-1H-pyrrolo[3,2-c]quinolin-2-yl)ethyl)-2,2-difluoroacetamide]
< 100 nM | < 100 nM |  | +++ (a Caco-2 value of >1) | CN(C)C(=O)c1ccc(-c2nc3c(F)c(-c4cccc(Cl)c4Cl)c(CCC#N)cc3c3c2cc([C@H]2CCCN2C(=O)C2(F)CC2)n3[C@H]2[C@H]3CN[C@@H]2C3)cn1 [Example 72, 5-(1-((1R,4R,5S)-2-Azabicyclo[2.1.1]hexan-5-yl)-8-(2-cyanoethyl)-7-(2,3-dichlorophenyl)-6-fluoro-2-((R)-1-(1-fluorocyclopropane-1-carbonyl)pyrrolidin-2-yl)-1H-pyrrolo[3,2-c]quinolin-4-yl)-N,N-dimethylpicolinamide]
< 100 nM | < 100 nM |  | +++ (a Caco-2 value of >1) | CC(O)c1nc2c(F)c(-c3cccc(Cl)c3Cl)c(CCC#N)cc2c2c1cc([C@H]1C[C@H]3C[C@H]3N1C(=O)C1(F)CC1)n2[C@H]1[C@H]2CN[C@@H]1C2 (stereo partly drawn) [Example 63, 3-(1-((1R,4R,5S)-2-Azabicyclo[2.1.1]hexan-5-yl)-7-(2,3-dichlorophenyl)-6-fluoro-2-((1R,3R,5R)-2-(1-fluorocyclopropane-1-carbonyl)-2-azabicyclo[3.1.0]hexan-3-yl)-4-(1-hydroxyethyl)-1H-pyrrolo[3,2-c]quinolin-8-yl)propanenitrile]
< 100 nM | < 100 nM |  | + (a Caco-2 value of 50.5) | Cc1nc2c(F)c(-c3cccc(Cl)c3Cl)c(CCC#N)cc2c2c1cc(C1CCc3cccc(=O)n31)n2[C@H]1[C@H]2CN[C@@H]1C2 (single isomer, unassigned) [Example 31]
< 100 nM | < 100 nM |  | +++ (a Caco-2 value of >1) | Cc1nc2c(F)c(-c3cccc(Cl)c3Cl)c(CCC#N)cc2c2c1cc([C@@H](C)NC(=O)c1ccncn1)n2[C@H]1[C@H]2CN[C@@H]1C2 [Example 68, N-((1R)-1-(1-((1R,4R,5S)-2-azabicyclo[2.1.1]hexan-5-yl)-8-(2-cyanoethyl)-7-(2,3-dichlorophenyl)-6-fluoro-4-methyl-1H-pyrrolo[3,2-c]quinolin-2-yl)ethyl)pyrimidine-4-carboxamide]
< 100 nM | < 100 nM |  | +++ (a Caco-2 value of >1) | CC(O)c1nc2c(F)c(-c3cccc(Cl)c3Cl)c(CCC#N)cc2c2c1cc([C@@H](C)NC(=O)C1(F)CC1)n2[C@H]1[C@H]2CN[C@@H]1C2 (stereo partly drawn) [Example 65, N-((1R)-1-(1-((1R,4R,5S)-2-Azabicyclo[2.1.1]hexan-5-yl)-8-(2-cyanoethyl)-7-(2,3-dichlorophenyl)-6-fluoro-4-(1-hydroxyethyl)-1H-pyrrolo[3,2-c]quinolin-2-yl)ethyl)-1-fluorocyclopropane-1-carboxamide]
< 100 nM | 100 to 1000 nM |  | +++ (a Caco-2 value of >1) | CN(C)C(=O)N1CCC[C@@H]1c1cc2c(-n3cncn3)nc3c(F)c(-c4cccc(Cl)c4Cl)c(CCC#N)cc3c2n1[C@H]1[C@H]2CN[C@@H]1C2 [Example 28, (2R)-2-(1-((1R,4R,5S)-2-azabicyclo[2.1.1]hexan-5-yl)-8-(2-cyanoethyl)-7-(2,3-dichlorophenyl)-6-fluoro-4-(1H-1,2,4-triazol-1-yl)-1H-pyrrolo[3,2-c]quinolin-2-yl)-N,N-dimethylpyrrolidine-1-carboxamide]
